Measurements as given in patent publication US10813888B2, “Formulations of cysteamine and cysteamine derivatives” (RECORDATI INDUSTRIA CHIMICA E FARMACEUTICA SPA, priority 2016, dated 2020).

Assay: In vitro dissolution test, USP Apparatus II at pH 1.2 for 1 hour
Assay type: physicochemical
Experimental: The in vitro dissolution tests were conducted in an USP Apparatus II at pH 1.2 for 1 hour. The cysteamine bitartrate raw material was completely dissolved in 10 minutes.

NCCS.O=C(O)C(O)C(O)C(=O)O (stereo not shown) [cysteamine bitartrate raw material, cysteamine bitartrate]
time to complete dissolution: 10 min
